# Source: patent US10065990B2, “Cyclic peptide compound, and preparation method, pharmaceutical composition and use thereof” (HANGZHOU GUANYU BIO-MEDICAL CO., LTD, priority 2013, dated 2018)
# Like-named read-outs stand apart in the source and are kept apart here.
# Key:
# [1] = test system: H1975 (non-small cell lung adenocarcinoma); experiment: MTT cancer cell growth inhibition; format: cell-based; conditions: Homo sapiens, NCI-H1975, 72 h, MTT, 72 hours incubation, H1975 cells; read-out: GI50 H1975
# In short: (§1)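 Using a 72 h MTT format, triplicate wells of 1500 cells received compound concentrations from 10^−5 to 10^−10 M. Formazan was read at 570 nm after DMSO dissolution, and GI50 was derived from viability.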
# [2] = test system: KBM-5 (human chronic myelogenous leukemia); experiment: MTT cancer cell growth inhibition; format: cell-based; conditions: Homo sapiens, KBM5, 72 h, MTT, 72 hours incubation, KBM-5 cells; read-out: GI50 KBM-5
# In short: as §1
# [3] = test system: HT1080 (human fibrosarcoma cells); experiment: MTT cancer cell growth inhibition; format: cell-based; conditions: MTT, 72 hours incubation, read-out: GI50 HT1
# In short: as §1
# [4] = test system: lncap (prostate cancer cells); experiment: MTT cancer cell growth inhibition; format: cell-based; conditions: Homo sapiens, LNCaP, 72 h, MTT, 72 hours incubation, read-out: GI50 lnca
# In short: as §1
# [5] = test system: HCC827 (human non-small cell lung cancer cells); experiment: MTT cancer cell growth inhibition; format: cell-based; conditions: Homo sapiens, HCC827, 72 h, MTT, 72 hours incubation, HCC827 cells; read-out: GI50 HCC827
# In short: as §1
# [6] = test system: MOLT-4 (human acute lymphoblastic leukemia cells); experiment: MTT cancer cell growth inhibition; format: cell-based; conditions: Homo sapiens, MOLT-4, 72 h, MTT, 72 hours incubation, read-out: GI50 Mol
# In short: as §1
# [7] = test system: MDA-MB-231 (breast cancer cells); experiment: MTT cancer cell growth inhibition; format: cell-based; conditions: Homo sapiens, MDA-MB-231, 72 h, read-out: GI50 MDA-MB-231, MTT, 72 hours incubation, MDA-MB-231 cells
# In short: as §1
# [8] = test system: SGC-7901 (human gastric cancer cells); experiment: MTT cancer cell growth inhibition; format: cell-based; conditions: Homo sapiens, SGC-7901, 72 h, MTT, 72 hours incubation, SGC-7901 cells; read-out: GI50 SGC-7901
# In short: as §1
# [9] = test system: BGC-823 (human gastric cancer cells); experiment: MTT cancer cell growth inhibition; format: cell-based; conditions: Homo sapiens, BGC-823, 72 h, MTT, 72 hours incubation, read-out: GI50 BG
# In short: as §1
# [10] = test system: PANC-1 (Pac-1, human pancreatic cancer cells); experiment: MTT cancer cell growth inhibition; format: cell-based; conditions: Homo sapiens, PANC-1, 72 h, MTT, 72 hours incubation, read-out: GI50 PAN
# In short: as §1
# [11] = test system: N-87 (human gastric cancer cells); experiment: MTT cancer cell growth inhibition; format: cell-based; conditions: Homo sapiens, 72 h, MTT, 72 hours incubation, N-87 cells; read-out: GI50 N-87
# In short: as §1
# [12] = test system: KBM5-T315I (human chronic myelogenous leukemia); experiment: MTT cancer cell growth inhibition; format: cell-based; conditions: Homo sapiens, 72 h, MTT, 72 hours incubation, KBM5-T315I cells; read-out: GI50 KBM5-T315I
# In short: as §1
# [13] = test system: DU145 (human prostate cancer cells); experiment: MTT cancer cell growth inhibition; format: cell-based; conditions: Homo sapiens, DU-145, 72 h, MTT, 72 hours incubation, read-out: GI50 Du1
# In short: as §1
# [14] = test system: Bel-7402 (human hepatoma cells); experiment: MTT cancer cell growth inhibition; format: cell-based; conditions: MTT, 72 hours incubation, Bel-7402 cells, read-out: GI50 Bel-7402
# In short: as §1
# [15] = test system: A549 (human lung cancer cells); experiment: MTT cancer cell growth inhibition; format: cell-based; conditions: Homo sapiens, A549, 72 h, MTT, 72 hours incubation, read-out: GI50 A54
# In short: as §1
# [16] = test system: MCF-7 (human breast cancer cells); experiment: MTT cancer cell growth inhibition; format: cell-based; conditions: 72 hours incubation, read-out: GI50 MCF
# In short: as §1
# [17] = test system: U937 (human leukemia cells); experiment: MTT cancer cell growth inhibition; format: cell-based; conditions: MTT, 72 hours incubation, read-out: GI50 U93
# In short: as §1
# [18] = test system: K562 (human leukemia cells); experiment: MTT cancer cell growth inhibition; format: cell-based; conditions: Homo sapiens, K562, 72 h, MTT, 72 hours incubation, K562 cells; read-out: GI50 K562
# In short: as §1
# [19] = test system: Huh-7 (human hepatoma cells); experiment: MTT cancer cell growth inhibition; format: cell-based; conditions: Homo sapiens, Huh-7, 72 h, MTT, 72 hours incubation, Huh-7 cells; read-out: GI50 Huh-7
# In short: as §1
# [20] = test system: Hela (human cervical cancer cells); experiment: MTT cancer cell growth inhibition; format: cell-based; conditions: MTT, 72 hours incubation, read-out: GI50 Hela
# In short: as §1
# HDAC7 = molecular target: T1, HDAC7 (Homo sapiens, UniProt Q8WUI4); experiment: HDAC biochemical activity measurement (fluorescent substrate deacetylation);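 further: fluorogenic deacetylation assay using acetyl-lysine substrate at 20 µM, enzyme and compound incubated 30 min at 37 °C, then developer added, fluorescence read at 360/460 nm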; conditions: HDAC7; 37° C. 30 minutes
# T1 sequence (Q8WUI4 1-952): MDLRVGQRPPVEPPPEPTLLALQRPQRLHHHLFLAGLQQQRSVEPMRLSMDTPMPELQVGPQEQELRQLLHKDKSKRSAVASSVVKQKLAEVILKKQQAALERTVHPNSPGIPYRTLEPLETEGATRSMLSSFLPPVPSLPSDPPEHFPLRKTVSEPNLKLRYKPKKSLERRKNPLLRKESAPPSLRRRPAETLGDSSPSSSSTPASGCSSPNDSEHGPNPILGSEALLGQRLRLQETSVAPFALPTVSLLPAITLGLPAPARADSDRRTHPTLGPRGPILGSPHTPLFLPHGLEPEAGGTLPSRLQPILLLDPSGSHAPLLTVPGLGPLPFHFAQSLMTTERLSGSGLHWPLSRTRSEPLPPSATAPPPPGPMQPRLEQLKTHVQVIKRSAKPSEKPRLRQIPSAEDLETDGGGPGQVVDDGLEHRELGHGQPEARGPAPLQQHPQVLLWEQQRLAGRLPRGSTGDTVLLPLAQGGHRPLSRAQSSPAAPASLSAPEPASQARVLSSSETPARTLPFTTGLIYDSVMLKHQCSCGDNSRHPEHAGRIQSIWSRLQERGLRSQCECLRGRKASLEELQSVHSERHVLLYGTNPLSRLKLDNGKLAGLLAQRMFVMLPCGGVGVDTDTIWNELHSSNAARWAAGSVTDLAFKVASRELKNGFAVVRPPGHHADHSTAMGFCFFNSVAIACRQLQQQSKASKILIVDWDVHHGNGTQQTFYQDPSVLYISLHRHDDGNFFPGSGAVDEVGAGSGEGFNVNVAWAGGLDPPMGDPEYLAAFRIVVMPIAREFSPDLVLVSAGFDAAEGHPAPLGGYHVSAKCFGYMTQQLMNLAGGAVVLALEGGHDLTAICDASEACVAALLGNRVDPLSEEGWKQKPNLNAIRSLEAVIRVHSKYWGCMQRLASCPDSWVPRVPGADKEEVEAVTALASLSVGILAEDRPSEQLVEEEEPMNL
# [21] = Homo sapiens, HT-1080, 72 h, HT1080 cells
# [22] = Homo sapiens, MCF7, 72 h, MCF-7 cells
# [23] = Homo sapiens, U-937, 72 h, U937 cells
# [24] = Homo sapiens, HeLa, 72 h, Hela cells
Structure (SMILES),GI50 [1],GI50 [2],GI50 ([4]; lncap cells),GI50 [5],GI50 ([6]; MOLT-4 cells),GI50 [7],GI50 [8],GI50 ([9]; BGC-823 cells),GI50 ([10]; PANC-1 cells),GI50 [11],GI50 [12],GI50 ([13]; DU145 cells),"GI50 ([14]; Homo sapiens, Bel-7402, 72 h)",GI50 ([15]; A549 cells),GI50 [18],GI50 [19],IC50 HDAC7 (HDAC7),"GI50 ([3]; Homo sapiens, HT-1080, 72 h)",GI50 [4],GI50 [6],also measured
C/C=C1\NC(=O)c2cc(SC)cc(n2)CNC(=O)C[C@@H](/C=C/CCSC(=O)CC)OC(=O)[C@H](C(C)C)NC1=O [Compound 163],45 nM,75 nM,30 nM,47 nM,40 nM,58 nM,49 nM,60 nM,70 nM,39 nM,23 nM,40 nM,26 nM,50 nM,58 nM,107 nM,no activity,,,,"GI50 [3, 21]: 10 nM; GI50 [16, 22]: 20 nM; GI50 [17, 23]: 30 nM; GI50 [20, 24]: 10 nM"
C/C=C1\NC(=O)c2nc(ccc2SC)CNC(=O)C[C@@H](/C=C/CCSC(C)=O)OC(=O)[C@H](C)NC1=O [Compound 183],41 nM,51 nM,60 nM,46 nM,60 nM,49 nM,48 nM,60 nM,50 nM,37 nM,65 nM,30 nM,,70 nM,25 nM,47 nM,no activity,,,,GI50 ([3]; HT1080 cells): 50 nM; GI50 [14]: 25 nM; GI50 ([16]; MCF-7 cells): 40 nM; GI50 ([17]; U937 cells): 20 nM; GI50 ([20]; Hela cells): 110 nM
C/C=C1\NC(=O)c2ccc(F)c(n2)CCNC(=O)C[C@@H](/C=C/CCSC(C)=O)OC(=O)[C@H](C(C)C)NC1=O [Compound 105],97 nM,23 nM,,47 nM,,86 nM,16 nM,,,93 nM,53 nM,,21 nM,,19 nM,56 nM,no activity,70 nM,20 nM,20 nM,"GI50 [9]: 10 nM; GI50 [10]: 70 nM; GI50 [13]: 30 nM; GI50 [15]: 40 nM; GI50 ([16]; Homo sapiens, MCF7, 72 h): 20 nM; GI50 ([17]; Homo sapiens, U-937, 72 h): 50 nM; GI50 ([20]; Homo sapiens, HeLa, 72 h): 50 nM"
C/C=C1\NC(=O)c2nc(ccc2F)CNC(=O)C[C@@H](/C=C/CCS)OC(=O)[C@H](CCCCNC(=O)OCC2c3ccccc3-c3ccccc32)NC1=O [Compound 120],35 nM,45 nM,,55 nM,,16 nM,84 nM,,,53 nM,33 nM,,66 nM,,23 nM,71 nM,no activity,10 nM,30 nM,20 nM,"GI50 [9]: 30 nM; GI50 [10]: 100 nM; GI50 [13]: 50 nM; GI50 [15]: 50 nM; GI50 ([16]; Homo sapiens, MCF7, 72 h): 100 nM; GI50 ([17]; Homo sapiens, U-937, 72 h): 10 nM; GI50 ([20]; Homo sapiens, HeLa, 72 h): 30 nM"
C=C1NC(=O)c2ccc(F)c(n2)CNC(=O)C[C@@H](/C=C/CCS)OC(=O)[C@H](C(C)C)NC1=O [Compound 134],54 nM,31 nM,,35 nM,,63 nM,27 nM,,,41 nM,61 nM,,29 nM,,38 nM,92 nM,no activity,70 nM,100 nM,50 nM,"GI50 [9]: 170 nM; GI50 [10]: 130 nM; GI50 [13]: 50 nM; GI50 [15]: 30 nM; GI50 ([16]; Homo sapiens, MCF7, 72 h): 80 nM; GI50 ([17]; Homo sapiens, U-937, 72 h): 50 nM; GI50 ([20]; Homo sapiens, HeLa, 72 h): 40 nM"
C/C=C1\NC(=O)c2nc(ccc2SC)CNC(=O)C[C@@H](/C=C/CCSC(C)=O)OC(=O)[C@@H](C)NC1=O [Compound 220],57 nM,83 nM,60 nM,26 nM,50 nM,45 nM,28 nM,30 nM,30 nM,46 nM,33 nM,30 nM,55 nM,40 nM,83 nM,53 nM,no activity,,,,"GI50 [3, 21]: 80 nM; GI50 [16, 22]: 20 nM; GI50 [17, 23]: 80 nM; GI50 [20, 24]: 30 nM"
